Data as given in publication PMC10667816, “A Cell‐Penetrant Peptide Disrupting the Transcription Factor CP2c Complexes Induces Cancer‐Specific Synthetic Lethality” (Advanced Science, 2023).
Where no end group is shown, it is not given here.

Columns and labels:
[1] = tested on: murine erythroleukemia (MEL) cells; experiment: Erythroid differentiation of MEL cells; assay type: cell-based; conditions: HMBA‐induced MEL cells, supplementation to the culture
Description: Information of the cell lines is listed in Table S1 (Supporting Information), including their origin and culture conditions. All cell lines were cultured at 37 °C, 5% CO2 incubator. MDA‐MB‐231 (LM1), HepG2, Hep3B, and HCT116 cell lines were authenticated with short tandem repeat markers based on ATCC information. All cell lines tested negative for mycoplasma contamination. Transient downregulation of the gene of interest was conducted by siRNA transfection using Lipofectamine 2000 (Thermo Fisher, 11668019) according to the manufacturer's instructions. Information about siRNAs is provided in Table S2 (Supporting Information). Stable cell lines were established by transfecting cells using Effectene reagent (Qiagen, 301425), followed by selection of cell clones in the presence of 1 µg mL^−1 puromycin (Sigma–Aldrich, P8833). The establishment of cell lines was confirmed by WB or RT‐qPCR. For doxycycline‐inducible gene expression regulation, cell lines were incubated in the presence of 1 µg mL^−1 doxycycline (Sigma–Aldrich, D9891) for 2–3 days. To promote sphere formation of the cell lines, each well of the tissue culture dish was coated with 10% poly 2‐hydroxyethyl methacrylate (polyHEMA). An appropriate number of cells per well were seeded in serum‐free DMEM/F12 (HyClone, SH30023.01) supplemented with B27, 20 ng mL^−1 bFGF, and 20 ng mL^−1 EGF. For erythroid terminal differentiation experiments, differentiation was assessed by hemoglobin staining using a 0.2% (w/v) tetramethylbenzidine solution (Sigma–Aldrich, T0440) in 0.6% hydrogen peroxide, 3% acetic acid for 10 min in dark condition. Benzidine‐positive or negative cell numbers were counted under the inverted microscope BX50 (Olympus) at 200 × magnification. […] After each synchronization, cells were fixed at 4‐h intervals for 24 h with ACP52C treatment, and the cell cycle was analyzed by Propidium Iodide (PI) staining or intracellular protein was analyzed by immunofluorescence. […] This development period was repeated four times for one round, after which GI50 concentrations were re‐assessed in each resistant cell line. […]

Hep3B = Hep3B CDX mouse model; assay type: in vivo
Description: Animal experiments were conducted in accordance with ethical guidelines, and all protocols were approved by the Institutional Animal Care and Use Committee under Hanyang University (approval numbers, 2014‐0016A, 2018‐0049A, 2018‐0207A, and 2019‐0169A), Chung‐Ang University (approval number, 2015‐00022), Chungbuk University (approval number, CBNUA‐1072‐17‐02), and Konkuk University (approval number, KU17130). To establish xenograft mice models, Hep3B, A431, U343, and PC9 cells were subcutaneously injected into the flank of Balb/c nude mice. For the MDA‐MB‐231 (LM1) cell line, it was implanted into the mammary fat pad of immunodeficient mice (NPG mice). Once tumors were successfully established, the animals were randomly divided into a control (vehicle) group and an experimental (drug) group. When the tumor volume reached 100 cubic millimeters, either saline or an appropriate concentration of drugs was administrated into mice via tail vein every 3 or 5 days for appropriate duration. Tumor volume was calculated using the formula of length × width^2)/2. To generate an orthotopic liver cancer mice model, 75 mg kg^−1 (mpk) of DEN was intraperitoneally injected weekly for 3 weeks into C57BL/6 mice, followed by 100 mpk of DEN weekly for the subsequent 3 weeks. After 37 weeks of liver cancer induction, mice received either saline or an appropriate concentration of drugs via the tail vein every 5 days for the designated duration. The in vivo administration amount was determined based on the concentration of ACP52C confirmed at the cellular level, which was 2 µM. Assuming an average mouse weight of 30 grams and considering that ≈5.8% of body weight constitutes blood volume,^[ [49] ^] it was calculated that the blood concentration of ACP52C should be ten times the GI50 concentration in cell culture conditions. […] For ACP52C derivatives, the amount was adjusted to ensure a similar molar quantity of peptide injection, taking their molecular weights into account. For instance, in the case of ACP52CGK, ≈1.67 times the quantity was used compared to ACP52C to achieve an equivalent molar quantity. At the time of sacrifice, major organs and tumors were removed and weighed, and blood was extracted. For histological analysis, major organs and tumors of mice were immediately fixed in 10% formalin neutral buffer solution, dehydrated through a graded series of ethanol treatments, treated with xylene, paraffin embedded, and cut into 4 µm sections. Hematoxylin and eosin (H&E)‐stained tissue sections were analyzed and photographed, and the representative histological images were recorded. Liver nodules in the DEN orthotopic liver cancer model were estimated by measuring the ratio of tumor areas over entire liver tissues in the tissue section using an Image J (version 1.51) software at 40× magnification. Complete blood count (CBC) analysis was conducted using a Hematology analyzer (scil Vet ABC) from the extracted blood.

CP2c = target: T1, CP2c (Mus musculus, UniProt Q9ERA0); experiment: DNA‐IP assay of CP2c DNA binding; assay type: biochemical; conditions: 0–3 µM peptide, concentration‐dependent
T1 construct: extracts from iMEL cells (day 2); endogenous in cells; host or cells: nuclear extract of HMBA-induced MEL (iMEL) cells, day 2
T1 sequence (Q9ERA0 whole entry): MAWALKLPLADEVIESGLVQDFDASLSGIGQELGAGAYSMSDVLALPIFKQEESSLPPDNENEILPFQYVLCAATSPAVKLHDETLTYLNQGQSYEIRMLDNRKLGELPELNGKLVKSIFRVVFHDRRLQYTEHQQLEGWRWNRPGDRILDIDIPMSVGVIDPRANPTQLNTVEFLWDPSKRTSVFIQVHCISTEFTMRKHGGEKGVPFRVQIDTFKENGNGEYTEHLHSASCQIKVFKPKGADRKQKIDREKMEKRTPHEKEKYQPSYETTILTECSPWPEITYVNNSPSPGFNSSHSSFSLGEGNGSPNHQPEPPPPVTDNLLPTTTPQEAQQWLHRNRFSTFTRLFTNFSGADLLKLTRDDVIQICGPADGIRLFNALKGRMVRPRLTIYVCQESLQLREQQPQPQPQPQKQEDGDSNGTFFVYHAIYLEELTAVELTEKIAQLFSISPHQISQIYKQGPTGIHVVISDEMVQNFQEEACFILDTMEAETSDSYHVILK
Description: DNA‐IP assay was performed essentially as described previously.^[ [14] ^] Each of the oligonucleotides was mixed and annealed in the TEN buffer. For the radio‐labeling of the DNA probe, the annealed DNA was incubated with a mixture of dATP, dGTP, dTTP, [α^32P]‐dCTP, and Klenow enzyme in reaction buffer (5 mM NaCl, 1 mM Tris HCl, 1 mM MgCl2, and 0.1 mM DTT) for 30 min at 25 °C, and stopped by incubation with EDTA (10 mM final) for 20 min at 75 °C. The radio‐labeled DNA probe was purified by applying the reaction mixture to ProbeQuant G‐50 micro columns (GE healthcare, GE28‐9034‐08). Whole extracts prepared from transfecting 293T cells or purified GST fused CP2c proteins (wildtype and point mutants) were incubated with a [α^32P]‐labeled DNA probe in binding buffer (4% glycerol, 10 mM Tris‐HCl, pH 7.4, 1 mM DTT, 1 mM EDTA, and 0.1% NP‐40) for 15 min at room temperature. Then 0–3 µM of peptides (Pep #5, Pep #8, Pep #5‐1, Pep #5‐2, and Pep #5‐2C) were added to the DNA‐protein mixture, and the mixtures were incubated for 15 min at room temperature (peptide sequences are listed in Table S3, Supporting Information). For IP, precleared extracts were incubated overnight at 4 °C with 1 µg of the following primary antibodies (CP2c, CP2b, and PIAS1). […] The radioactivity of the eluted probe was measured by scintillation counting.

[2] = intravenous injection at three‐day intervals, Sorafenib orally once daily as positive control

Row | Substance | anti‐tumor activity (Hep3B; [2]) | further results
1 | Ac-HERRESNYPQRPCRGDKGPDC-NH2 [Pep #5C] | – | inhibition of erythroid differentiation [1]: efficiently inhibited erythroid differentiation
2 | Ac-K(E-pal)K-GGNYPQRPCRGDKGPDC-NH2 [ACP52CG, palmitic acid linked to lysine at the N‐terminus of ACP52C] | decrease in anti‐tumor activity, resembling Sorafenib | –
3 | Ac-K(EGFLG-pal)K-GGNYPQRPCRGDKGPDC-NH2 [ACP52CK, ACP52C with enzyme‐cleavable linker GFLG to palmitic acid] | activity similar to that of Sorafenib | –
4 | Ac-NYPQRPGG-K(E-pal)-GGCRGDKGPDC-NH2 [ACP52GK, E‐pal attached via αE COO‐ to lysine between ACP52 and iRGD] | lower anti‐tumor activity compared to ACP52C | –
5 | DHA-GGNYPQRPCRGDKGPDC-NH2 [DHA‐ACP52C, DHA, an unsaturated fatty acid, conjugated at the N‐terminus of ACP52C] | effectively demonstrated anti‐tumor activity | anti‐tumor activity (Hep3B; administered at five‐day intervals): noticeably higher activity than ACP52C
6 | HERRES [Pep #5‐1] | – | inhibition of DNA binding activity of CP2c (CP2c): no activity
